Bounds are passed on as bounds.

By MIC is commonly meant the lowest concentration found to suppress growth.

Assay [1] concerns EC1010 CMY-6. As to the kind of experiment: Aztreonam potentiation assay (MPC@4) and aztreonam MIC. Conditions: strain EC1010 CMY-6. The class given is cell-based. As to the method:
(§1) The potency and spectrum of β-lactamase inhibitors (BLIs) was determined by assessing their aztreonam potentiation activity in a dose titration potentiation assay using strains of various bacteria that are resistant to aztreonam due to expression of various β-lactamases. Aztreonam is a monobactam antibiotic and is hydrolyzed by the majority of β-lactamases that belong to class A or C (but not class B or D). The potentiation effect was observed as the ability of BLI compounds to inhibit growth in the presence of sub-inhibitory concentration of aztreonam. […] Aztreonam was present in the test medium at 4 μg/mL. Compounds were tested at concentrations up to 20 μg/mL. In this assay, potency of compounds was reported as the minimum concentration of BLI required to inhibit growth of bacteria in the presence of 4 μg/mL of aztreonam (MPC@4). Table 1 summarizes the BLI potency of aztreonam potentiation (MPC@4) for various strains overexpressing class A (ESBL and KPC), and class C β-lactamases. Aztreonam MIC for each strain is also shown.

The subject of assay [2] is ECL1002. Described as above. The class given is cell-based. Conditions: strain ECL1002. As to the method: as §1
The test system of assay [3] is KP1004 KPC-2. Described as above. The class given is cell-based. As to the method: as §1
Assay [4] concerns KP1005 CTX-M-14. Described as above. The class given is cell-based. As to the method:
as §1

Assay [5] has as its system KP1009 CTX-M-15. The description is as above. The class given is cell-based. The conditions noted are these: strain KP1009 CTX-M-15. As to the method:
as §1

For assay [6], the system named is KP1010 SHV-12. Described as above. The class given is cell-based. Conditions: strain KP1010 SHV-12. As to the method:
as §1

The subject of assay [7] is ec302 TEM-10. Described as above. The class given is cell-based. Conditions: strain ec302 TEM-10. As to the method: as §1
Assay [8] has as its system ec308 SHV-5. The assay is described as above. Conditions: strain ec308 SHV-5. The class given is cell-based. As to the method:
as §1

Assay [9] deals with KP1004 KPC-2. As to the kind of experiment: Biapenem potentiation assay (MPC@1) and biapenem MIC. The class given is cell-based. Conditions: strain KP1004 KPC-2. As to the method: (§2) β-lactamase inhibitors were also tested for their ability to potentiate the carbapenem biapenem against strains producing class A (KPC), class D (OXA-48), and class B (metallo β-lactamases, NDM-1 and VIM-1) carbapenemases. The potentiation effect was observed as the ability of BLI compounds to inhibit growth in the presence of a sub-inhibitory concentration of biapenem. […] Biapenem was present in the test medium at 1 μg/mL. Compounds were tested at concentrations up to 20 μg/mL. In this assay, potency of compounds was reported as the minimum concentration of BLI required to inhibit growth of bacteria in the presence of 1 μg/mL of biapenem (MPC@1). Table 3 summarizes the BLI potency of biapenem potentiation (MPC@1) for four strains overexpressing class A (KPC), class D (OXA-48), and class B (NDM-1 and VIM-1) carbapenemases. Biapenem MIC for each strain is also shown.

The test system of assay [10] is KP1081 NDM-1. The description is as above. Conditions: strain KP1081 NDM-1. The class given is cell-based. As to the method:
as §2

For assay [11], the system named is KP1086 OXA-48. The description is as above. The class given is cell-based. The conditions noted are these: strain KP1086 OXA-48. As to the method:
as §2

In assay [12] the test system is strains producing class A (KPC), class D (OXA-48), and class B (NDM-1 and VIM-1) carbapenemases. As to the kind of experiment: Biapenem MIC of the test strains (panel). The class given is cell-based. Conditions: span over all test strains of Table 3. As to the method: as §2
For assay [13], the system named is EC1010 CMY-6. As to the kind of experiment: Tigemonam potentiation assay (MPC@4) and tigemonam MIC. The class given is cell-based. Conditions: strain EC1010 CMY-6. As to the method: (§3) Selected β-lactamase inhibitors were also tested for their ability to potentiate the monobactam tigemonam. […] Tigemonam was present in the test medium at 4 μg/mL. Compounds were tested at concentrations up to 20 μg/mL. In this assay, potency of compounds was reported as the minimum concentration of BLI required to inhibit growth of bacteria in the presence of 4 μg/mL of tigemonam (MPC@4). Table 2 summarizes the BLI potency of tigemonam potentiation (MPC@4) for various strains overexpressing class A (ESBL) and class C β-lactamases.

The subject of assay [14] is ECL1002. The description is as above. The class given is cell-based. The conditions noted are these: strain ECL1002. As to the method:
as §3

In assay [15] the test system is KP1005 CTX-M-14. Described as above. The class given is cell-based. Conditions: strain KP1005 CTX-M-14. As to the method: as §3
In assay [16] the test system is KP1009 CTX-M-15. The assay is described as above. The class given is cell-based. The conditions noted are these: strain KP1009 CTX-M-15. As to the method:
as §3

The subject of assay [17] is KP1010 SHV-12. The description is as above. The class given is cell-based. The conditions noted are these: strain KP1010 SHV-12. As to the method:
as §3

Assay [18] deals with ec302 TEM-10. The assay is described as above. The class given is cell-based. The conditions noted are these: strain ec302 TEM-10. As to the method: as §3
The subject of assay [19] is ec308 SHV-5. Described as above. The class given is cell-based. Conditions: strain ec308 SHV-5. As to the method:
as §3

Assay [20] relates to KP1054 VIM-1. As to the kind of experiment: Biapenem potentiation assay (MPC@1) and biapenem MIC. The class given is cell-based. The conditions noted are these: minimum BLI concentration inhibiting growth with biapenem 1 μg/mL; strain KP1054 VIM-1; tested up to 20 μg/mL. As to the method:
as §2

Assay [21] concerns AB1053 OXA-72. Put plainly: Meropenem potentiation assay (MPC@8) and meropenem MIC. The class given is cell-based, Acinetobacter baumannii. The conditions noted are these: A. baumannii strain AB1053 OXA-72. As to the method:
(§4) β-lactamase inhibitors were also tested for their ability to potentiate the carbapenem meropenem against strains of Acinetobacter baumannii producing class D (OXA-23 and OXA-72) carbapenemases. […] Meropenem was present in the test medium at 8 μg/mL. Compounds were tested at concentrations up to 20 μg/mL. In this assay, potency of compounds was reported as the minimum concentration of BLI required to inhibit growth of bacteria in the presence of 8 μg/mL of meropenem (MPC@8).

Assay [22] has as its system AB1054 OXA-23. Described as above. The class given is cell-based, Acinetobacter baumannii. As to the method:
as §4

Where [23] appears, read: minimum BLI concentration inhibiting growth with aztreonam 4 μg/mL, tested up to 20 μg/mL.
Setting [24] is: minimum BLI concentration inhibiting growth with tigemonam 4 μg/mL, tested up to 20 μg/mL.
Setting [25] is: minimum BLI concentration inhibiting growth with biapenem 1 μg/mL, tested up to 20 μg/mL.

In the case of `C[C@H]1[C@H](NC(=O)/C(=N\OC(C)(C)C(=O)O)c2csc(N)n2)C(=O)N1S(=O)(=O)O` [Aztreonam], the MIC was > 128 µg/mL in [1] (aztreonam alone); 64 µg/mL in [2] (aztreonam alone); > 128 µg/mL in [3] (read-out: Aztreonam MIC); > 128 µg/mL in assay [4] (read-out: Aztreonam MIC); > 128 µg/mL in [5] (aztreonam alone); 64 µg/mL in assay [6] (aztreonam alone). Also, the MIC in assay [7] (aztreonam alone) is 128 µg/mL; in assay [8] (aztreonam alone), > 128 µg/mL.

Regarding `C[C@@H](O)[C@H]1C(=O)N2C(C(=O)[O-])=C(SC3Cn4cnc[n+]4C3)[C@H](C)[C@H]12` (stereo partly drawn) [Biapenem], the MIC in [9] (biapenem alone) is 32 µg/mL; in assay [10] (biapenem alone), 16 µg/mL; in assay [11] (biapenem alone), 16 µg/mL; in assay [12], 16 to 32 µg/mL.

As for `COc1ccc2c(c1C(=O)O)OB(O)CC2Cn1cc(CO)nn1` (stereo not drawn) [Compound 16, 2-hydroxy-4-[[4-(hydroxymethyl)triazol-1-yl]methyl]-7-methoxy-3,4-dihydro-1,2-benzoxaborinine-8-carboxylic Acid], the “AZT MPC4 CMY-6 EC1010” value in assay [1] (setting [23]) is “X (X = MPC@4 ≤ 5 μg/mL)”. Also, the “AZT MPC4 ECL1002” value in [2] (setting [23]) is “X (X = MPC@4 ≤ 5 μg/mL)”. The “AZT MPC4 KPC-2 KP1004” value in assay [3] (minimum BLI concentration inhibiting growth with aztreonam 4 μg/mL, strain KP1004 KPC-2, tested up to 20 μg/mL) is recorded as “X (X = MPC@4 ≤ 5 μg/mL)”. Besides, in assay [4] (minimum BLI concentration inhibiting growth with aztreonam 4 μg/mL, strain KP1005 CTX-M-14, tested up to 20 μg/mL), the “AZT MPC4 CTX-M-14 KP1005” value is “X (X = MPC@4 ≤ 5 μg/mL)”. Moreover, the “AZT MPC4 CTX-M-15 KP1009” value in assay [5] (setting [23]) was “X (X = MPC@4 ≤ 5 μg/mL)”. The “AZT MPC4 SHV-12 KP1010” value in [6] (setting [23]) was “X (X = MPC@4 ≤ 5 μg/mL)”. The “AZT MPC4 TEM-10 ec302” value in [7] (setting [23]) is “X (X = MPC@4 ≤ 5 μg/mL)”. For the same compound, the “AZT MPC4 SHV-5 ec308” value in [8] (setting [23]) was “X (X = MPC@4 ≤ 5 μg/mL)”. In addition, in [13] (setting [24]), the “TIG MPC4 CMY-6 EC1010” value is “X (X = MPC@4 ≤ 5 μg/mL)”. The “TIG MPC4 ECL1002” value in assay [14] (setting [24]) is given as “X (X = MPC@4 ≤ 5 μg/mL)”. For the same compound, the “TIG MPC4 CTX-M-14 KP1005” value in assay [15] (setting [24]) is “Y (Y = 5 μg/mL < MPC@4 ≤ 20 μg/mL)”. In [16] (setting [24]), the “TIG MPC4 CTX-M-15 KP1009” value is on record as “X (X = MPC@4 ≤ 5 μg/mL)”. Besides, the “TIG MPC4 SHV-12 KP1010” value in assay [17] (setting [24]) was “X (X = MPC@4 ≤ 5 μg/mL)”. Also, the “TIG MPC4 TEM-10 ec302” value in assay [18] (setting [24]) was “Y (Y = 5 μg/mL < MPC@4 ≤ 20 μg/mL)”. Besides, in [19] (setting [24]), the “TIG MPC4 SHV-5 ec308” value was “X (X = MPC@4 ≤ 5 μg/mL)”. The “BPM MPC1 KP1004 KPC-2” value in [9] (setting [25]) was “X (X = MPC@1 ≤ 5 μg/mL)”. In [20], the “BPM MPC1 KP1054 VIM-1” value is reported as “Y (Y = 5 μg/mL < MPC@1 ≤ 20 μg/mL)”. Moreover, the “BPM MPC1 KP1081 NDM-1” value in [10] (setting [25]) is given as “Y (Y = 5 μg/mL < MPC@1 ≤ 20 μg/mL)”. In assay [11] (setting [25]), the “BPM MPC1 OXA-48 KP1086” value is recorded as “Y (Y = 5 μg/mL < MPC@1 ≤ 20 μg/mL)”. Besides, the “MPM MPC8 AB1053 OXA-72” value in assay [21] (minimum BLI concentration inhibiting growth with meropenem 8 μg/mL, tested up to 20 μg/mL) is recorded as “X (X = MPC@1 ≤ 5 μg/mL)”. Besides, the “MPM MPC8 AB1054 OXA-23” value in assay [22] (minimum BLI concentration inhibiting growth with meropenem 8 μg/mL, A. baumannii strain AB1054 OXA-23, tested up to 20 μg/mL) is on record as “Y (Y = 5 μg/mL < MPC@1 ≤ 20 μg/mL)”.

As for `C[C@@H](O)[C@H]1C(=O)N2C(C(=O)O)=C(S[C@@H]3CN[C@H](C(=O)N(C)C)C3)[C@H](C)[C@H]12` [Meropenem], the MIC was > 64 µg/mL in assay [21] (Acinetobacter baumannii, meropenem alone) and 32 µg/mL in assay [22] (Acinetobacter baumannii, read-out: Meropenem MIC).

As to `CC1(C)[C@H](NC(=O)/C(=N\OCC(=O)O)c2csc(N)n2)C(=O)N1OS(=O)(=O)O` [Tigemonam], the “Tigemonam MIC” value in assay [13] (tigemonam alone) is 16 µg/mL; in assay [14] (tigemonam alone), 32 µg/mL; in assay [15] (tigemonam alone) it was >64 µg/mL; in assay [16] (tigemonam alone), >64 µg/mL; in assay [17] (tigemonam alone), >64 µg/mL; in [18] (tigemonam alone) it was >64 µg/mL. In [19] (tigemonam alone), the “Tigemonam MIC” value was >64 µg/mL.

Source of the values: patent publication US12016868B2, “Boronic acid derivatives and therapeutic uses thereof” (Qpex Biopharma, Inc., priority 2018, dated 2024).
